Source: the supplement of paper PMC10627819

How the values were obtained:
S. aureus DSM 20231 [1] = experiment: fitness (endpoint OD595 vs no drug) (fraction); higher = more growth
Outline: (§1)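 Fitness is computed from the optical density at which cultures reach stationary phase, divided by the robust mean of no-drug control wells. Any value above 1 is set to 1. Cultures started at OD595 0.01 in 384-well plates with TSB, LB Lennox or CY at 37 °C, and OD595 was read every 30 min for 14 h against a first-reading background.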

S. aureus Newman [2] = experiment: as above
Outline: as §1

S. pneumoniae D39V [3] = experiment: as above
Outline: as §1

B. subtilis 168 = experiment: Bliss interaction score (quartile over a dose matrix) (fitness difference); higher = more antagonism (negative = synergy)
Outline: (§2)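 The Bliss score is observed minus expected fitness, where expected fitness is the product of the single-drug fitness values inferred from the combination data. Fitness is the OD595 at the onset of stationary phase over the plate's robust no-drug mean, capped at 1. Scores are summarised by quartiles over technical, biological and donor/recipient replicates.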

S. aureus DSM 20231 [4] = experiment: as above
Outline: as §2

S. aureus Newman [5] = experiment: as above
Outline: as §2

S. pneumoniae D39V [6] = experiment: as above
Outline: as §2
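Wherever Bliss interaction score (quartile over a dose matrix) is given: first quartile when negative (synergy) and third quartile when positive (antagonism).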
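Wherever fitness (endpoint OD595 vs no drug) is given: OD595 on entry to stationary phase over no-drug wells; at most 1.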

CCN(CC)CCOC(=O)c1ccc(N)cc1 [Procaine] + CN[C@H](CC(C)C)C(=O)N[C@H]1C(=O)N[C@@H](CC(N)=O)C(=O)N[C@H]2C(=O)N[C@H]3C(=O)N[C@H](C(=O)N[C@H](C(=O)O)c4cc(O)cc(O)c4-c4cc3ccc4O)[C@H](O)c3ccc(c(Cl)c3)Oc3cc2cc(c3O[C@@H]2O[C@H](CO)[C@@H](O)[C@H](O)[C@H]2O[C@H]2C[C@](C)(N)[C@H](O)[C@H](C)O2)Oc2ccc(cc2Cl)[C@H]1O [Vancomycin]
fitness
Conditions | partner 0.03125 µg/mL | partner 0.0625 µg/mL | partner 0.125 µg/mL | partner 0.1875 µg/mL | partner 0.375 µg/mL | partner 0.75 µg/mL
S. aureus DSM 20231 [1], first compound 85.5 µg/mL | – | – | – | 0.969 | 0.999 | 0.953
S. aureus DSM 20231 [1], first compound 171 µg/mL | – | – | – | 0.953 | ≥ 1 | 0.982
S. aureus DSM 20231 [1], first compound 342 µg/mL | – | – | – | 0.883 | 0.983 | ≥ 1
S. aureus Newman [2], first compound 342 µg/mL | – | – | – | 0.962 | 0.999 | 0.98
S. pneumoniae D39V [3], first compound 85.5 µg/mL | ≥ 1 | 0.963 | 0.742 | – | – | –
S. pneumoniae D39V [3], first compound 171 µg/mL | 0.978 | 0.955 | 0.903 | – | – | –
S. pneumoniae D39V [3], first compound 342 µg/mL | 0.952 | 0.921 | 0.907 | – | – | –

fitness, S. pneumoniae D39V [3], one replicate
Conditions | first compound 85.5 µg/mL | first compound 171 µg/mL | first compound 342 µg/mL
partner 0.25 µg/mL | 0.0963 | 0.383 | 0.674
partner 0.5 µg/mL | 0.0592 | 0.0925 | 0.148

Conditions | Bliss interaction score
B. subtilis 168 | 0.0237
S. aureus DSM 20231 [4] | 0.0492
S. aureus Newman [5] | 0.0558
S. pneumoniae D39V [6] | -0.0761

CO/N=C(\C(=O)N[C@@H]1C(=O)N2C(C(=O)[O-])=C(C[N+]3(C)CCCC3)CS[C@H]12)c1csc(N)n1 [Cefepime] + CN1C2=CC=CC=C2N=C3C1=CC=CC3=O [Pyocyanin]
Conditions | fitness
S. aureus DSM 20231 [1], first compound 0.125 µg/mL, partner 1.25 µg/mL | 0.854
S. aureus DSM 20231 [1], first compound 0.125 µg/mL, partner 2.5 µg/mL | 0.846
S. aureus DSM 20231 [1], first compound 0.125 µg/mL, partner 5 µg/mL | 0.639
S. aureus DSM 20231 [1], first compound 0.25 µg/mL, partner 1.25 µg/mL | 0.837
S. aureus DSM 20231 [1], first compound 0.25 µg/mL, partner 2.5 µg/mL | 0.831
S. aureus DSM 20231 [1], first compound 0.25 µg/mL, partner 5 µg/mL | 0.564
S. aureus DSM 20231 [1], first compound 0.5 µg/mL, partner 1.25 µg/mL | 0.786
S. aureus DSM 20231 [1], first compound 0.5 µg/mL, partner 5 µg/mL | 0.571
S. aureus Newman [2], first compound 0.125 µg/mL, partner 1.25 µg/mL | 0.85
S. aureus Newman [2], first compound 0.125 µg/mL, partner 2.5 µg/mL | 0.819
S. aureus Newman [2], first compound 0.125 µg/mL, partner 5 µg/mL | 0.56
S. aureus Newman [2], first compound 0.25 µg/mL, partner 1.25 µg/mL | 0.804
S. aureus Newman [2], first compound 0.25 µg/mL, partner 2.5 µg/mL | 0.783
S. aureus Newman [2], first compound 0.25 µg/mL, partner 5 µg/mL | 0.508
S. aureus Newman [2], first compound 0.5 µg/mL, partner 1.25 µg/mL | 0.748
S. aureus Newman [2], first compound 0.5 µg/mL, partner 2.5 µg/mL | 0.702
S. aureus Newman [2], first compound 0.5 µg/mL, partner 5 µg/mL | 0.535
S. pneumoniae D39V [3], first compound 0.007 µg/mL, partner 0.325 µg/mL | ≥ 1
S. pneumoniae D39V [3], first compound 0.007 µg/mL, partner 0.65 µg/mL | ≥ 1
S. pneumoniae D39V [3], first compound 0.007 µg/mL, partner 1.3 µg/mL | 0.963
S. pneumoniae D39V [3], first compound 0.014 µg/mL, partner 0.325 µg/mL | ≥ 1
S. pneumoniae D39V [3], first compound 0.014 µg/mL, partner 0.65 µg/mL | 0.997
S. pneumoniae D39V [3], first compound 0.014 µg/mL, partner 1.3 µg/mL | 0.961
S. pneumoniae D39V [3], first compound 0.028 µg/mL, partner 0.325 µg/mL | 0.946
S. pneumoniae D39V [3], first compound 0.028 µg/mL, partner 0.65 µg/mL | 0.974
S. pneumoniae D39V [3], first compound 0.028 µg/mL, partner 1.3 µg/mL | 0.943

fitness, S. pneumoniae D39V [3], one replicate
Conditions | first compound 0.0078 µg/mL | first compound 0.0155 µg/mL | first compound 0.031 µg/mL
partner 0.325 µg/mL | ≥ 1 | ≥ 1 | 0.786
partner 0.65 µg/mL | ≥ 1 | ≥ 1 | 0.907

Conditions | Bliss interaction score
B. subtilis 168 | 0.0781
S. aureus DSM 20231 [4] | -0.078
S. aureus Newman [5] | 0.0752
S. pneumoniae D39V [6] | 0.126
